Tested on: Haemaphysalis longicornis
Experiment: Test Example 10: Haemaphysalis longicornis, treated filter paper pouch
Format: in vivo
Conditions: 0.5 mg compound on filter paper 5×10 cm; non-blood sucking nymphal ticks; after 2 days
Protocol: In 1 mL of acetone, 0.5 mg of any one of the present compounds 1 to 48 was dissolved, and the solution was spread uniformly on one side of a filter paper (TOYO No. 2; 5×10 cm). After dried, the filter paper was folded into two, and the sides were clipped to make a pouch. Into the pouch, tested ticks (Haemaphysalis longicornis, non-blood sucking nymphal ticks, 10 ticks in a group) were placed. The pouch was clipped and sealed. After 2 days, the number of dead ticks was counted.

SMILES | death rate
CCc1cccc(OC(=Nc2ccccc2)C(C)=COc2ccccc2OC)c1 [Compound 234, 3-ethylphenyl 3-(2-methoxyphenyloxy)-2-methyl-N-phenyl-2-propenimidate] | 100%
CC(=COc1cccc(C)c1)C(=Nc1ccccc1)Oc1cccc(C)c1 [Compound 176, 3-methylphenyl 2-methyl-3-(3-methylphenyloxy)-N-phenyl-2-propenimidate] | 100%
COc1ccccc1OC=C(C)C(=Nc1ccccc1)Oc1cc(C)cc(C)c1 [Compound 238, 3,5-dimethylphenyl 3-(2-methoxyphenyloxy)-2-methyl-N-phenyl-2-propenimidate] | 100%
CC(=COc1ccc(C)cc1)C(=Nc1ccccc1)Oc1ccc(F)cc1 [Compound 199, 4-fluorophenyl 2-methyl-3-(4-methylphenyloxy)-N-phenyl-2-propenimidate] | 100%
CCCC(=COc1ccccc1)C(=Nc1ccccc1)Oc1ccccc1 [Compound 322, phenyl 3-phenoxy-N-phenyl-2-n-propyl-2-propenimidate] | 100%
COc1ccccc1OC=C(C)C(=Nc1ccccc1)Oc1ccccc1 [Compound 232, phenyl 3-(2-methoxyphenyloxy)-2-methyl-N-phenyl-2-propenimidate] | 100%
COc1ccc(N=C(Oc2cccc(C)c2)C(C)=COc2ccc(C)cc2)cc1 [Compound 225, 3-methylphenyl N-(4-methoxyphenyl)-2-methyl-3-(4-methylphenyloxy)-2-propenimidate] | 100%
CCOc1cccc(OC(=Nc2ccc(C)cc2)C(C)=COc2ccccc2OC)c1 [Compound 243, 3-ethoxyphenyl 3-(2-methoxyphenyloxy)-2-methyl-N-(4-methylphenyl)-2-propenimidate] | 100%
COc1ccc(N=C(Oc2cc(C)cc(C)c2)C(C)=COc2ccc(OC)cc2)cc1 [Compound 281, 3,5-dimethylphenyl N-(4-methoxyphenyl)-3-(4-methoxyphenyloxy)-2-methyl-2-propenimidate] | 100%
COc1cccc(OC(=Nc2ccccc2)C(C)=COc2ccccc2OC)c1 [Compound 236, 3-methoxyphenyl 3-(2-methoxyphenyloxy)-2-methyl-N-phenyl-2-propenimidate] | 100%
CCC(=COc1ccccc1)C(=Nc1ccccc1)Oc1ccccc1 [Compound 301, phenyl 2-ethyl-3-phenoxy-N-phenyl-2-propenimidate] | 100%
CCc1cccc(OC(=Nc2ccc(OC)cc2)C(C)=COc2ccccc2OC)c1 [Compound 247, 3-ethylphenyl N-(4-methoxyphenyl)-3-(2-methoxyphenyloxy)-2-methyl-2-propenimidate] | 100%
COc1ccc(N=C(Oc2ccccc2)C(C)=COc2cccc(C)c2)cc1 [Compound 188, phenyl N-(4-methoxyphenyl)-2-methyl-3-(3-methylphenyloxy)-2-propenimidate] | 100%
COc1ccc(OC=C(C)C(=Nc2ccc(C)cc2)Oc2cc(C)cc(C)c2)cc1 [Compound 275, 3,5-dimethylphenyl 3-(4-methoxyphenyloxy)-2-methyl-N-(4-methylphenyl)-2-propenimidate] | 100%
COc1ccccc1OC=C(C)C(=Nc1ccc(C)cc1)Oc1ccccc1 [Compound 239, phenyl 3-(2-methoxyphenyloxy)-2-methyl-N-(4-methylphenyl)-2-propenimidate] | 100%
COc1ccc(OC=C(C)C(=Nc2ccc(C)cc2)Oc2ccc(C)cc2)cc1 [Compound 271, 4-methylphenyl 3-(4-methoxyphenyloxy)-2-methyl-N-(4-methylphenyl)-2-propenimidate] | 100%
COc1ccc(OC=C(C)C(=Nc2ccccc2)Oc2cccc(OC)c2)cc1 [Compound 266, 3-methoxyphenyl 3-(4-methoxyphenyloxy)-2-methyl-N-phenyl-2-propenimidate] | 100%
CC(=COc1ccc(C)cc1)C(=Nc1ccccc1)Oc1ccc2ccccc2c1 [Compound 207, 2-naphthyl 2-methyl-3-(4-methylphenyloxy)-N-phenyl-2-propenimidate] | 100%
COc1ccccc1OC=C(C)C(=Nc1ccc(C)cc1)Oc1cc(C)cc(C)c1 [Compound 244, 3,5-dimethylphenyl 3-(2-methoxyphenyloxy)-2-methyl-N-(4-methylphenyl)-2-propenimidate] | 100%
CCOc1cccc(OC(=Nc2ccc(C)cc2)C(C)=COc2cccc(C)c2)c1 [Compound 186, 3-ethoxyphenyl 2-methyl-N-(4-methylphenyl)-3-(3-methylphenyloxy)-2-propenimidate] | 100%
CC(=COc1ccc(C)cc1)C(=Nc1ccc(C)cc1)Oc1cccc(F)c1 [Compound 214, 3-fluorophenyl 2-methyl-N-(4-methylphenyl)-3-(4-methylphenyloxy)-2-propenimidate] | 100%

SMILES | death rate
CC(=COc1ccc(Cl)cc1)C(=Nc1ccccc1)Oc1ccccc1 [Compound 231, phenyl 3-(4-chlorophenyloxy)-2-methyl-N-phenyl-2-propenimidate] | 100%
COc1ccc(OC=C(C)C(=Nc2ccc(C)cc2)Oc2cccc(OC)c2)cc1 [Compound 273, 3-methoxyphenyl 3-(4-methoxyphenyloxy)-2-methyl-N-(4-methylphenyl)-2-propenimidate] | 100%
CCC(=COc1ccccc1)C(=Nc1ccccc1)Sc1ccccc1 [Compound 300, phenyl 2-ethyl-3-phenoxy-N-phenyl-2-propenimidothioate] | 100%
CC(=COc1cccc(C)c1)C(=Nc1ccc(C)cc1)Oc1cccc(C)c1 [Compound 184, 3-methylphenyl 2-methyl-N-(4-methylphenyl)-3-(3-methylphenyloxy)-2-propenimidate] | 100%
COc1ccccc1OC=C(C)C(=Nc1ccccc1)Oc1cccc(C)c1 [Compound 233, 3-methylphenyl 3-(2-methoxyphenyloxy)-2-methyl-N-phenyl-2-propenimidate] | 100%
CCc1cccc(OC(=Nc2ccc(C)cc2)C(C)=COc2ccccc2OC)c1 [Compound 241, 3-ethylphenyl 3-(2-methoxyphenyloxy)-2-methyl-N-(4-methylphenyl)-2-propenimidate] | 100%
COc1cccc(OC=C(C)C(=Nc2ccccc2)Oc2ccccc2)c1 [Compound 257, phenyl 3-(3-methoxyphenyloxy)-2-methyl-N-phenyl-2-propenimidate] | 100%
CC(=COc1ccc(C)cc1)C(=Nc1ccccc1)Oc1cccc(F)c1 [Compound 198, 3-fluorophenyl 2-methyl-3-(4-methylphenyloxy)-N-phenyl-2-propenimidate] | 100%
CCc1cccc(OC(=Nc2ccc(C)c(C)c2)C(C)=COc2ccc(OC)cc2)c1 [Compound 284, 3-ethylphenyl N-(3,4-dimethylphenyl)-3-(4-methoxyphenyloxy)-2-methyl-2-propenimidate] | 100%
CC(=COc1cccc(C)c1)C(=Nc1ccc(C)cc1)Oc1ccccc1 [Compound 183, phenyl 2-methyl-N-(4-methylphenyl)-3-(3-methylphenyloxy)-2-propenimidate] | 100%
COc1ccc(OC(=Nc2ccc(C)cc2)C(C)=COc2ccc(C)cc2)cc1 [Compound 221, 4-methoxyphenyl 2-methyl-N-(4-methylphenyl)-3-(4-methylphenyloxy)-2-propenimidate] | 100%
CCc1cccc(OC(=Nc2ccccc2)C(C)=COc2cccc(C)c2)c1 [Compound 177, 3-ethylphenyl 2-methyl-3-(3-methylphenyloxy)-N-phenyl-2-propenimidate] | 100%
CC(=COc1ccc(C)cc1)C(=Nc1ccccc1)Oc1cccc(C(F)(F)F)c1 [Compound 206, 3-(trifluoromethyl)phenyl 2-methyl-3-(4-methylphenyloxy)-N-phenyl-2-propenimidate] | 100%
COc1ccc(OC(=Nc2ccccc2)C(C)=COc2ccc(C)cc2)cc1 [Compound 205, 4-methoxyphenyl 2-methyl-3-(4-methylphenyloxy)-N-phenyl-2-propenimidate] | 100%
CC(=COc1ccc(C)cc1)C(=Nc1ccccc1)Oc1ccc(Cl)cc1 [Compound 202, 4-chlorophenyl 2-methyl-3-(4-methylphenyloxy)-N-phenyl-2-propenimidate] | 100%
COc1ccccc1OC=C(C)C(=Nc1ccc(C)c(C)c1)Oc1cccc(C)c1 [Compound 252, 3-methylphenyl N-(3,4-dimethylphenyl)-3-(2-methoxyphenyloxy)-2-methyl-2-propenimidate] | 100%
CCOc1cccc(OC(=Nc2ccccc2)C(C)=COc2cccc(C)c2)c1 [Compound 179, 3-ethoxyphenyl 2-methyl-3-(3-methylphenyloxy)-N-phenyl-2-propenimidate] | 100%
CC(=COc1cccc(C)c1)C(=Nc1ccccc1)Oc1ccccc1 [Compound 175, phenyl 2-methyl-3-(3-methylphenyloxy)-N-phenyl-2-propenimidate] | 100%
COc1ccc(OC=C(C)C(=Nc2ccccc2)Oc2ccccc2)cc1 [Compound 262, phenyl 3-(4-methoxyphenyloxy)-2-methyl-N-phenyl-2-propenimidate] | 100%
CC(=COc1ccc(C)cc1)C(=Nc1ccc(C)cc1)Oc1ccc(F)cc1 [Compound 215, 4-fluorophenyl 2-methyl-N-(4-methylphenyl)-3-(4-methylphenyloxy)-2-propenimidate] | 100%
COc1cccc(OC(=Nc2ccc(C)cc2)C(C)=COc2ccc(C)cc2)c1 [Compound 220, 3-methoxyphenyl 2-methyl-N-(4-methylphenyl)-3-(4-methylphenyloxy)-2-propenimidate] | 100%

— patent US8278473B2, “Alpha, beta-unsaturated imidate compound and pesticidal composition containing the same” (Sumitomo Chemical Company, Limited, priority 2007, dated 2012)
